Measured values as given in PubChem BioAssay (NCI).
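Where inhibition never reached the appropriate level, the endpoint shown equals the highest concentration tested. Otherwise, values were interpolated linearly from a five-concentration, 48-hour dose response in 96-well plates. TGI marks complete inhibition of growth.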

Key:
Test in all cases: NCI tumour cell line growth inhibition, 48 h
OVCAR-8 ovarian = test system: OVCAR-8 ovarian
SNB-19 CNS = test system: SNB-19 CNS
LOX IMVI melanoma = test system: LOX IMVI melanoma
HL-60(TB) leukemia = test system: HL-60(TB) leukemia
SW-620 colon = test system: SW-620 colon
ACHN renal = test system: ACHN renal
CCRF-CEM leukemia = test system: CCRF-CEM leukemia
DU-145 prostate = test system: DU-145 prostate
HS 578T breast = test system: HS 578T breast
MALME-3M melanoma = test system: MALME-3M melanoma
A498 renal = test system: A498 renal
HCT-15 colon = test system: HCT-15 colon
SK-OV-3 ovarian = test system: SK-OV-3 ovarian
TK-10 renal = test system: TK-10 renal
HOP-92 NSCLC = test system: HOP-92 NSCLC
NCI/ADR-RES ovarian = test system: NCI/ADR-RES ovarian
NCI-H23 lung = test system: NCI-H23 lung
M14 melanoma = test system: M14 melanoma
SF-268 CNS = test system: SF-268 CNS
SF-295 CNS = test system: SF-295 CNS
UO-31 renal = test system: UO-31 renal
COLO 205 colon = test system: COLO 205 colon
MOLT-4 leukemia = test system: MOLT-4 leukemia
OVCAR-5 ovarian = test system: OVCAR-5 ovarian
MDA-MB-435 = test system: MDA-MB-435
U251 CNS = test system: U251 CNS
NCI-H226 lung = test system: NCI-H226 lung
SN12C renal = test system: SN12C renal
RXF 393 renal = test system: RXF 393 renal
SK-MEL-28 melanoma = test system: SK-MEL-28 melanoma
RPMI-8226 leukemia = test system: RPMI-8226 leukemia
NCI-H522 lung = test system: NCI-H522 lung
SK-MEL-5 melanoma = test system: SK-MEL-5 melanoma
EKVX NSCLC = test system: EKVX NSCLC
UACC-257 melanoma = test system: UACC-257 melanoma
SF-539 CNS = test system: SF-539 CNS
IGROV1 ovarian = test system: IGROV1 ovarian
MDA-N = test system: MDA-N
K-562 leukemia = test system: K-562 leukemia
T-47D breast = test system: T-47D breast
HT29 colon = test system: HT29 colon
HCT-116 colon = test system: HCT-116 colon
MDA-MB-231 breast = test system: MDA-MB-231 breast
KM12 colon = test system: KM12 colon
786-0 renal = test system: 786-0 renal
CAKI-1 renal = test system: CAKI-1 renal
SR leukemia = test system: SR leukemia
OVCAR-4 ovarian = test system: OVCAR-4 ovarian
SNB-75 CNS = test system: SNB-75 CNS
A549 NSCLC = test system: A549 NSCLC
SK-MEL-2 melanoma = test system: SK-MEL-2 melanoma
NCI-H460 lung = test system: NCI-H460 lung
HCC-2998 colon = test system: HCC-2998 colon
PC-3 prostate = test system: PC-3 prostate
OVCAR-3 ovarian = test system: OVCAR-3 ovarian
UACC-62 melanoma = test system: UACC-62 melanoma
HOP-62 NSCLC = test system: HOP-62 NSCLC

## Nc1c(N2CCCCC2)c(=O)nc2[nH]/c(=C\c3ccco3)c(=O)n12
OVCAR-8 ovarian
  TGI: > 100 µM
SNB-19 CNS
  TGI: > 100 µM
LOX IMVI melanoma
  TGI: > 100 µM
HL-60(TB) leukemia
  TGI: > 100 µM
SW-620 colon
  TGI: > 100 µM
ACHN renal
  TGI: > 100 µM
CCRF-CEM leukemia
  TGI: > 100 µM
DU-145 prostate
  TGI: > 100 µM
HS 578T breast
  TGI: > 100 µM
MALME-3M melanoma
  TGI: > 100 µM
A498 renal
  TGI: > 100 µM
HCT-15 colon
  TGI: > 100 µM
SK-OV-3 ovarian
  TGI: > 100 µM
TK-10 renal
  TGI: > 100 µM
HOP-92 NSCLC
  TGI: > 100 µM
NCI/ADR-RES ovarian
  TGI: > 100 µM
NCI-H23 lung
  TGI: > 100 µM
M14 melanoma
  TGI: > 100 µM
SF-268 CNS
  TGI: > 100 µM
SF-295 CNS
  TGI: > 100 µM
UO-31 renal
  TGI: > 100 µM
COLO 205 colon
  TGI: > 100 µM
MOLT-4 leukemia
  TGI: > 100 µM
OVCAR-5 ovarian
  TGI: > 100 µM
MDA-MB-435
  TGI: > 100 µM
U251 CNS
  TGI: > 100 µM
NCI-H226 lung
  TGI: > 100 µM
SN12C renal
  TGI: > 100 µM
RXF 393 renal
  TGI: > 100 µM
SK-MEL-28 melanoma
  TGI: > 100 µM
RPMI-8226 leukemia
  TGI: > 100 µM
NCI-H522 lung
  TGI: > 100 µM
SK-MEL-5 melanoma
  TGI: > 100 µM
EKVX NSCLC
  TGI: > 100 µM
UACC-257 melanoma
  TGI: > 100 µM
SF-539 CNS
  TGI: > 100 µM
IGROV1 ovarian
  TGI: > 100 µM
MDA-N
  TGI: > 100 µM
K-562 leukemia
  TGI: > 100 µM
T-47D breast
  TGI: > 100 µM
HT29 colon
  TGI: > 100 µM
HCT-116 colon
  TGI: > 100 µM
MDA-MB-231 breast
  TGI: > 100 µM
KM12 colon
  TGI: > 100 µM
786-0 renal
  TGI: > 100 µM
CAKI-1 renal
  TGI: > 100 µM
SR leukemia
  TGI: > 100 µM
OVCAR-4 ovarian
  TGI: > 100 µM
SNB-75 CNS
  TGI: > 100 µM
A549 NSCLC
  TGI: > 100 µM

## OC[C@H]1C[C@@H]2Cc3ccccc3N2N1
OVCAR-8 ovarian
  TGI: > 100 µM
SNB-19 CNS
  TGI: > 100 µM
LOX IMVI melanoma
  TGI: > 100 µM
HL-60(TB) leukemia
  TGI: > 100 µM
SW-620 colon
  TGI: > 100 µM
ACHN renal
  TGI: > 100 µM
CCRF-CEM leukemia
  TGI: > 100 µM
SK-MEL-2 melanoma
  TGI: > 100 µM
DU-145 prostate
  TGI: > 100 µM
HS 578T breast
  TGI: > 100 µM
MALME-3M melanoma
  TGI: > 100 µM
A498 renal
  TGI: > 100 µM
NCI-H460 lung
  TGI: > 100 µM
HCT-15 colon
  TGI: > 100 µM
SK-OV-3 ovarian
  TGI: > 100 µM
TK-10 renal
  TGI: > 100 µM
HOP-92 NSCLC
  TGI: > 100 µM
HCC-2998 colon
  TGI: > 100 µM
NCI/ADR-RES ovarian
  TGI: > 100 µM
NCI-H23 lung
  TGI: > 100 µM
PC-3 prostate
  TGI: > 100 µM
M14 melanoma
  TGI: > 100 µM
SF-268 CNS
  TGI: > 100 µM
SF-295 CNS
  TGI: > 100 µM
COLO 205 colon
  TGI: > 100 µM
MOLT-4 leukemia
  TGI: > 100 µM
OVCAR-5 ovarian
  TGI: > 100 µM
MDA-MB-435
  TGI: > 100 µM
U251 CNS
  TGI: > 100 µM
NCI-H226 lung
  TGI: > 100 µM
SN12C renal
  TGI: > 100 µM
RXF 393 renal
  TGI: > 100 µM
SK-MEL-28 melanoma
  TGI: > 100 µM
NCI-H522 lung
  TGI: > 100 µM
SK-MEL-5 melanoma
  TGI: > 100 µM
EKVX NSCLC
  TGI: > 100 µM
OVCAR-3 ovarian
  TGI: > 100 µM
UACC-257 melanoma
  TGI: > 100 µM
UACC-62 melanoma
  TGI: > 100 µM
SF-539 CNS
  TGI: > 100 µM
IGROV1 ovarian
  TGI: > 100 µM
MDA-N
  TGI: > 100 µM
K-562 leukemia
  TGI: > 100 µM
HOP-62 NSCLC
  TGI: > 100 µM
T-47D breast
  TGI: > 100 µM
HT29 colon
  TGI: > 100 µM
HCT-116 colon
  TGI: > 100 µM
MDA-MB-231 breast
  TGI: > 100 µM
KM12 colon
  TGI: > 100 µM
786-0 renal
  TGI: > 100 µM
CAKI-1 renal
  TGI: > 100 µM
SR leukemia
  TGI: > 100 µM
OVCAR-4 ovarian
  TGI: > 100 µM
SNB-75 CNS
  TGI: > 100 µM
A549 NSCLC
  TGI: > 100 µM

## COP(=O)(OC)/C(=C\C1=CN(C(c2ccccc2)(c2ccccc2)c2ccccc2)CN1)NC=O
OVCAR-8 ovarian
  TGI: 54.8 µM
SNB-19 CNS
  TGI: 43.4 µM
LOX IMVI melanoma
  TGI: 26.3 µM
HL-60(TB) leukemia
  TGI: 50.9 µM
SW-620 colon
  TGI: 42.4 µM
ACHN renal
  TGI: 28.9 µM
SK-MEL-2 melanoma
  TGI: 30.4 µM
DU-145 prostate
  TGI: 35.2 µM
HS 578T breast
  TGI: 51.2 µM
A498 renal
  TGI: 32.2 µM
NCI-H460 lung
  TGI: 27 µM
HCT-15 colon
  TGI: 33.1 µM
SK-OV-3 ovarian
  TGI: 33.1 µM
TK-10 renal
  TGI: 49.7 µM
HOP-92 NSCLC
  TGI: 23 µM
HCC-2998 colon
  TGI: 38.4 µM
NCI/ADR-RES ovarian
  TGI: 29.9 µM
NCI-H23 lung
  TGI: 36.3 µM
PC-3 prostate
  TGI: 19.7 µM
M14 melanoma
  TGI: 43.9 µM
SF-295 CNS
  TGI: 30.2 µM
UO-31 renal
  TGI: 29.1 µM
COLO 205 colon
  TGI: 40.5 µM
MOLT-4 leukemia
  TGI: 30.6 µM
OVCAR-5 ovarian
  TGI: 31.8 µM
MDA-MB-435
  TGI: 23.1 µM
U251 CNS
  TGI: 29.8 µM
NCI-H226 lung
  TGI: 39.5 µM
SN12C renal
  TGI: 36.3 µM
SK-MEL-28 melanoma
  TGI: 32.5 µM
RPMI-8226 leukemia
  TGI: 39.9 µM
NCI-H522 lung
  TGI: 33.5 µM
SK-MEL-5 melanoma
  TGI: 29.6 µM
OVCAR-3 ovarian
  TGI: 29.8 µM
UACC-257 melanoma
  TGI: 34.1 µM
IGROV1 ovarian
  TGI: 49.2 µM
MDA-N
  TGI: 28.4 µM
K-562 leukemia
  TGI: > 100 µM
HOP-62 NSCLC
  TGI: 31.3 µM
T-47D breast
  TGI: 49.2 µM
HT29 colon
  TGI: 28.2 µM
HCT-116 colon
  TGI: 29.6 µM
MDA-MB-231 breast
  TGI: 33.9 µM
CAKI-1 renal
  TGI: 39.5 µM
SR leukemia
  TGI: 33.7 µM
OVCAR-4 ovarian
  TGI: 39.6 µM
SNB-75 CNS
  TGI: 39.8 µM
A549 NSCLC
  TGI: 30.5 µM
